Measurements published in ChEMBL document CHEMBL6078702, “Hypoxia-selective prodrug restrains tumor cells through triggering mitophagy and inducing apoptosis” (Eur J Med Chem, 2025).
Active and inactive are the calls of the source. The calls are words filed in the database; no cut-off is given here.

Columns and labels:
HeLa [1] = experiment: Cytotoxicity against human HeLa cells under normoxia condition incubated for 48 hrs by MTT assay; type: functional, cell-based
HepG2 [2] = experiment: Cytotoxicity against human HepG2 cells under hypoxic condition incubated for 48 hrs by MTT assay; type: functional, cell-based; details: HepG2, 48 h
HeLa [3] = experiment: Cytotoxicity against human HeLa cells under hypoxic condition incubated for 48 hrs by MTT assay; type: functional, cell-based
HepG2 [4] = experiment: Cytotoxicity against human HepG2 cells under normoxia condition incubated for 48 hrs by MTT assay; type: functional, cell-based; details: HepG2, 48 h
HeLa [5] = experiment: Induction of mitochondrial membrane potential dissipation in human HeLa cells under hypoxic condition at 5 uM incubated for 24 hrs by flow cytometry; type: functional, cell-based
[6] = Acute toxicity in BALB/c nude mouse xenografted with human HeLa cells assessed as damage in spleen at 1000 mg/kg, ip by H and E staining based analysis; type: organism-based; details: in vivo
HeLa [7] = experiment: Induction of apoptosis in human HeLa cells under hypoxic condition assessed as viable cells at 5 uM incubated for 48 hrs by Annexin V-FITC/PI staining based flow cytometry (reference value: 98.13 %); type: functional; details: read-out: Activity
HeLa [8] = experiment: Induction of apoptosis in human HeLa cells under hypoxic condition assessed as increase in cleaved caspase-3 level at 1 to 10 uM incubated for 48 hrs by Western blot analysis; type: functional, cell-based; details: dose 1-10 µM
HeLa [9] = experiment: Induction of morphological change in mitochondria in human HeLa cells under hypoxic condition assessed as formation of multi-lamellar globules at 5 uM incubated for 48 hrs by TEM analysis; type: functional, cell-based
HeLa [10] = experiment: Antitumor activity against human HeLa cells xenografted in BALB/c nude mouse at 25 mg/kg, ip qd for 14 days relative to control; type: functional; details: 336 h, time 14 day, read-out: TGI
HeLa [11] = experiment: Induction of morphological damage in human HeLa cells under hypoxic condition by Hoechst 33342 staining based analysis; type: functional, cell-based
HeLa [12] = experiment: Induction of apoptosis in human HeLa cells under hypoxic condition assessed as necrotic cells at 5 uM incubated for 48 hrs by Annexin V-FITC/PI staining based flow cytometry (reference value: 1.17 %); type: functional
HeLa [13] = experiment: Induction of morphological change in mitochondria in human HeLa cells under hypoxic condition assessed as increase in IMMT level at 5 uM incubated for 48 hrs by immunofluorescence based analysis; type: functional, cell-based
HeLa [14] = experiment: Antitumor activity against human HeLa cells xenografted in BALB/c nude mouse at 50 mg/kg, ip qd for 14 days relative to control; type: functional; details: 336 h, time 14 day, read-out: TGI
HeLa [15] = experiment: Induction of mitophagy in human HeLa cells under hypoxic condition assessed as increase in ratio of LC3-II to LC3-I levels incubated for 24 hrs by Western blot analysis; type: functional, cell-based; details: dose 1-10 µM
HeLa [16] = experiment: Induction of apoptosis in human HeLa cells under hypoxic condition assessed as increase in cleaved PARP-1 level at 1 to 10 uM incubated for 48 hrs by Western blot analysis; type: functional, cell-based; details: dose 1-10 µM
[17] = Acute toxicity in BALB/c nude mouse xenografted with human HeLa cells assessed as damage in heart at 1000 mg/kg, ip by H and E staining based analysis; type: organism-based; details: in vivo
HeLa [18] = experiment: Induction of mitophagy in human HeLa cells under hypoxic condition assessed as encapsulation of mitochondria in vacuoles at 10 uM incubated for 48 hrs by TEM analysis; type: functional, cell-based
HeLa [19] = experiment: Induction of mitophagy in human HeLa cells under hypoxic condition assessed as co-localization of mitochondria and lysosomes at 5 uM incubated for 24 hrs by CLSM analysis; type: functional, cell-based
[20] = Acute toxicity in BALB/c nude mouse xenografted with human HeLa cells assessed as damage in liver at 1000 mg/kg, ip by H and E staining based analysis; type: organism-based; details: in vivo
[21] = Acute toxicity in BALB/c nude mouse xenografted with human HeLa cells assessed as damage in lung at 1000 mg/kg, ip by H and E staining based analysis; type: organism-based; details: in vivo
HeLa [22] = experiment: Induction of mitophagy in human HeLa cells under hypoxic condition assessed as decrease in p62 level incubated for 24 hrs by Western blot analysis; type: functional, cell-based; details: dose 1-10 µM
HeLa [23] = experiment: Induction of mitochondrial membrane potential dissipation in human HeLa cells under hypoxic condition assessed as accumulation of green fluorescence at 5 uM incubated for 24 hrs by JC-1 staining based CLSM analysis; type: functional, cell-based
[24] = Acute toxicity in BALB/c nude mouse xenografted with human HeLa cells assessed as damage in kidney at 1000 mg/kg, ip by H and E staining based analysis; type: organism-based; details: in vivo
[25] = Toxicity in BALB/c nude mouse xenografted with human HeLa cells assessed as body weight change at 25 to 50 mg/kg, ip qd for 14 days; type: organism-based; details: in vivo, 336 h, dose 25-50 mg/kg, time 14 day
HeLa [26] = experiment: Induction of morphological change in mitochondria in human HeLa cells under hypoxic condition assessed as formation of vacuoles at 5 to 10 uM incubated for 48 hrs by TEM analysis; type: functional, cell-based; details: dose 5-10 µM
HeLa [27] = experiment: Induction of morphological change in mitochondria in human HeLa cells under hypoxic condition assessed as disappearance of cristae at 5 to 10 uM incubated for 48 hrs by TEM analysis; type: functional, cell-based; details: dose 5-10 µM
HeLa [28] = experiment: Induction of morphological change in mitochondria in human HeLa cells under hypoxic condition assessed as onion-like circle formation of cristae folds in inner membrane at 5 uM incubated for 48 hrs by TEM analysis; type: functional, cell-based
HeLa [29] = experiment: Antitumor activity against human HeLa cells xenografted in BALB/c nude mouse assessed as tumor growth suppression at 25 to 50 mg/kg, ip qd for 14 days; type: functional, organism-based; details: dose 25-50 mg/kg, time 14.0 day
HeLa [30] = experiment: Induction of morphological damage in human HeLa cells under normoxia condition by Hoechst 33342 staining based analysis; type: functional, cell-based
HeLa [31] = experiment: Induction of apoptosis in human HeLa cells under hypoxic condition assessed as late apoptotic cells at 5 uM incubated for 48 hrs by Annexin V-FITC/PI staining based flow cytometry (reference value: 0.10 %); type: functional
HeLa [32] = experiment: Induction of apoptosis in human HeLa cells under hypoxic condition assessed as early apoptotic cells at 5 uM incubated for 48 hrs by Annexin V-FITC/PI staining based flow cytometry (reference value: 0.60 %); type: functional
[33] = Toxicity in BALB/c nude mouse xenografted with human HeLa cells assessed as animal mortality at 25 to 50 mg/kg, ip qd for 14 days; type: organism-based; details: in vivo, dose 25-50 mg/kg, time 14 day

Structure (SMILES): O=C(/C=C/c1cccc([N+](=O)[O-])c1)c1ccc(OCc2cn(CCCC[P+](c3ccccc3)(c3ccccc3)c3ccccc3)nn2)c(Br)c1
- IC50 (HeLa [1]): > 50 µM
- IC50 (HepG2 [2]): 26.5 µM
- IC50 (HeLa [3]): > 50 µM
- IC50 (HepG2 [4]): 12.8 µM

Structure (SMILES): COc1ccc(/C=C/C(=O)c2ccc(OCc3cn(CCCC[P+](c4ccccc4)(c4ccccc4)c4ccccc4)nn3)c(Br)c2)cc1[N+](=O)[O-]
- IC50 (HeLa [1]): 10.7 µM
- IC50 (HepG2 [2]): 19.3 µM
- IC50 (HeLa [3]): > 50 µM
- IC50 (HepG2 [4]): 21.6 µM

Structure (SMILES): COc1ccc(C(=O)/C=C/c2cccc([N+](=O)[O-])c2)cc1F
- Activity (HeLa [5]): Active
- Activity [6]: Non-toxic
- viability at 5 µM (HeLa [7]): 18.8%
- Activity (HeLa [8]): Active
- IC50 (HeLa [1]): > 50 µM
- Activity (HeLa [9]): Active
- inhibition in vivo at 25 mg/kg (HeLa [10]): 30.3%
- IC50 (HepG2 [2]): 5 µM
- Activity (HeLa [11]): Active
- IC50 (HeLa [3]): 3.3 µM
- Activity (HeLa [12]): 7.74%
- Activity (HeLa [13]): Active
- inhibition in vivo at 50 mg/kg (HeLa [14]): 57.4%
- Activity (HeLa [15]): Active
- Activity (HeLa [16]): Active
- Activity [17]: Non-toxic
- Activity (HeLa [18]): Active; Result Indicates That Mitochondria Were Removed From Cells Through Autophagosomes
- Activity (HeLa [19]): Active
- Activity [20]: Non-toxic
- Activity [21]: Non-toxic
- Activity (HeLa [22]): Active
- Activity (HeLa [23]): Active
- Activity [24]: Non-toxic
- Activity [25]: Non-toxic
- Activity (HeLa [26]): Active
- Activity (HeLa [27]): Active
- IC50 (HepG2 [4]): > 50 µM
- Activity (HeLa [28]): Active
- Activity (HeLa [29]): Active
- Activity (HeLa [30]): inactive
- Activity (HeLa [31]): 63.25%
- Activity (HeLa [32]): 10.21%

Structure (SMILES): COc1ccc(C(=O)/C=C/c2cccc(N)c2)cc1F
- mortality at 336 h [33]: 50%
- Activity [20]: Non-toxic
- Activity [21]: Non-toxic

Structure (SMILES): COc1ccc(C(=O)/C=C/c2ccc(OC)c([N+](=O)[O-])c2)cc1F
- IC50 (HeLa [1]): > 100 µM
- IC50 (HepG2 [2]): 23.1 µM
- IC50 (HeLa [3]): > 50 µM
- IC50 (HepG2 [4]): > 50 µM

Structure (SMILES): COc1ccc(C(=O)/C=C/c2ccc(OC)c([N+](=O)[O-])c2)cc1Br
- IC50 (HeLa [1]): > 100 µM
- IC50 (HepG2 [2]): 15.4 µM
- IC50 (HeLa [3]): 15.1 µM
- IC50 (HepG2 [4]): > 50 µM
